PubChem BioAssay (NCI)
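Test compounds were applied to cells in 96-well plates for 48 hours at 5 doses. Definition used: TGI = concentration required for complete inhibition of growth.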

system: NCI-H460 lung; assay: inhibition of tumour cell growth, NCI panel, 48 h

Compound | TGI
CC(=O)/C=C/C1=C(C)CCCC1(C)CC(C)C (configuration not stated) | > 100 µM
O=[N+]([O-])c1ccc2[nH]nc(OCc3ccccc3Cl)c2c1 | > 100 µM
C=C1CCN2CC[C@@H](OC(=O)/C(C)=C\C)[C@@H]12 | > 100 µM
O=C(N/N=C/c1ccc(Cl)cc1)c1c(Cl)c(Cl)c(Cl)c(Cl)c1-c1nc2ccccc2[nH]1 | > 100 µM
CCOC(=S)SCC(=O)O | > 100 µM
CC1=Nc2ccccc2OC(C)=C1N=Nc1ccc2nc(C)[nH]c2c1 | > 100 µM
Cc1cccc(Cn2c3c(c4cc(O)ccc42)C(=O)c2ccccc2C3=O)c1 | > 100 µM

system: OVCAR-8 ovarian; assay: inhibition of tumour cell growth, NCI panel, 48 h

Compound | TGI
CC(=O)/C=C/C1=C(C)CCCC1(C)CC(C)C (configuration not stated) | > 100 µM
O=[N+]([O-])c1ccc2[nH]nc(OCc3ccccc3Cl)c2c1 | > 100 µM
C=C1CCN2CC[C@@H](OC(=O)/C(C)=C\C)[C@@H]12 | > 100 µM
CCOC(=S)SCC(=O)O | > 100 µM
CC1=Nc2ccccc2OC(C)=C1N=Nc1ccc2nc(C)[nH]c2c1 | > 100 µM
Cc1cccc(Cn2c3c(c4cc(O)ccc42)C(=O)c2ccccc2C3=O)c1 | > 93.2 µM

system: EKVX NSCLC; assay: inhibition of tumour cell growth, NCI panel, 48 h

Compound | TGI
CC(=O)/C=C/C1=C(C)CCCC1(C)CC(C)C (configuration not stated) | > 100 µM
O=[N+]([O-])c1ccc2[nH]nc(OCc3ccccc3Cl)c2c1 | > 100 µM
C=C1CCN2CC[C@@H](OC(=O)/C(C)=C\C)[C@@H]12 | > 100 µM
O=C(N/N=C/c1ccc(Cl)cc1)c1c(Cl)c(Cl)c(Cl)c(Cl)c1-c1nc2ccccc2[nH]1 | > 100 µM
CCOC(=S)SCC(=O)O | > 100 µM
CC1=Nc2ccccc2OC(C)=C1N=Nc1ccc2nc(C)[nH]c2c1 | > 100 µM
Cc1cccc(Cn2c3c(c4cc(O)ccc42)C(=O)c2ccccc2C3=O)c1 | 49 µM

system: M14 melanoma; assay: inhibition of tumour cell growth, NCI panel, 48 h

Compound | TGI
CC(=O)/C=C/C1=C(C)CCCC1(C)CC(C)C (configuration not stated) | > 100 µM
O=[N+]([O-])c1ccc2[nH]nc(OCc3ccccc3Cl)c2c1 | > 100 µM
C=C1CCN2CC[C@@H](OC(=O)/C(C)=C\C)[C@@H]12 | > 100 µM
O=C(N/N=C/c1ccc(Cl)cc1)c1c(Cl)c(Cl)c(Cl)c(Cl)c1-c1nc2ccccc2[nH]1 | > 100 µM
CCOC(=S)SCC(=O)O | > 100 µM
CC1=Nc2ccccc2OC(C)=C1N=Nc1ccc2nc(C)[nH]c2c1 | > 100 µM
Cc1cccc(Cn2c3c(c4cc(O)ccc42)C(=O)c2ccccc2C3=O)c1 | > 100 µM

system: TK-10 renal; assay: inhibition of tumour cell growth, NCI panel, 48 h

Compound | TGI
CC(=O)/C=C/C1=C(C)CCCC1(C)CC(C)C (configuration not stated) | > 100 µM
O=[N+]([O-])c1ccc2[nH]nc(OCc3ccccc3Cl)c2c1 | 61.3 µM
C=C1CCN2CC[C@@H](OC(=O)/C(C)=C\C)[C@@H]12 | > 100 µM
CCOC(=S)SCC(=O)O | > 100 µM
CC1=Nc2ccccc2OC(C)=C1N=Nc1ccc2nc(C)[nH]c2c1 | > 100 µM
Cc1cccc(Cn2c3c(c4cc(O)ccc42)C(=O)c2ccccc2C3=O)c1 | > 100 µM

system: LOX IMVI melanoma; assay: inhibition of tumour cell growth, NCI panel, 48 h

Compound | TGI
CC(=O)/C=C/C1=C(C)CCCC1(C)CC(C)C (configuration not stated) | 39.9 µM
O=[N+]([O-])c1ccc2[nH]nc(OCc3ccccc3Cl)c2c1 | > 100 µM
C=C1CCN2CC[C@@H](OC(=O)/C(C)=C\C)[C@@H]12 | > 100 µM
O=C(N/N=C/c1ccc(Cl)cc1)c1c(Cl)c(Cl)c(Cl)c(Cl)c1-c1nc2ccccc2[nH]1 | > 100 µM
CCOC(=S)SCC(=O)O | > 100 µM
CC1=Nc2ccccc2OC(C)=C1N=Nc1ccc2nc(C)[nH]c2c1 | > 100 µM
Cc1cccc(Cn2c3c(c4cc(O)ccc42)C(=O)c2ccccc2C3=O)c1 | > 100 µM

system: SF-295 CNS; assay: inhibition of tumour cell growth, NCI panel, 48 h

Compound | TGI
CC(=O)/C=C/C1=C(C)CCCC1(C)CC(C)C (configuration not stated) | > 100 µM
O=[N+]([O-])c1ccc2[nH]nc(OCc3ccccc3Cl)c2c1 | > 100 µM
C=C1CCN2CC[C@@H](OC(=O)/C(C)=C\C)[C@@H]12 | > 100 µM
O=C(N/N=C/c1ccc(Cl)cc1)c1c(Cl)c(Cl)c(Cl)c(Cl)c1-c1nc2ccccc2[nH]1 | > 100 µM
CCOC(=S)SCC(=O)O | > 100 µM
CC1=Nc2ccccc2OC(C)=C1N=Nc1ccc2nc(C)[nH]c2c1 | > 100 µM
Cc1cccc(Cn2c3c(c4cc(O)ccc42)C(=O)c2ccccc2C3=O)c1 | 21.9 µM

system: UO-31 renal; assay: inhibition of tumour cell growth, NCI panel, 48 h

Compound | TGI
CC(=O)/C=C/C1=C(C)CCCC1(C)CC(C)C (configuration not stated) | > 100 µM
C=C1CCN2CC[C@@H](OC(=O)/C(C)=C\C)[C@@H]12 | > 100 µM
O=C(N/N=C/c1ccc(Cl)cc1)c1c(Cl)c(Cl)c(Cl)c(Cl)c1-c1nc2ccccc2[nH]1 | > 100 µM
CCOC(=S)SCC(=O)O | > 100 µM
Cc1cccc(Cn2c3c(c4cc(O)ccc42)C(=O)c2ccccc2C3=O)c1 | > 100 µM

system: SK-OV-3 ovarian; assay: inhibition of tumour cell growth, NCI panel, 48 h

Compound | TGI
CC(=O)/C=C/C1=C(C)CCCC1(C)CC(C)C (configuration not stated) | > 100 µM
O=[N+]([O-])c1ccc2[nH]nc(OCc3ccccc3Cl)c2c1 | 31.9 µM
C=C1CCN2CC[C@@H](OC(=O)/C(C)=C\C)[C@@H]12 | > 100 µM
O=C(N/N=C/c1ccc(Cl)cc1)c1c(Cl)c(Cl)c(Cl)c(Cl)c1-c1nc2ccccc2[nH]1 | > 100 µM
CCOC(=S)SCC(=O)O | > 100 µM
CC1=Nc2ccccc2OC(C)=C1N=Nc1ccc2nc(C)[nH]c2c1 | > 100 µM
Cc1cccc(Cn2c3c(c4cc(O)ccc42)C(=O)c2ccccc2C3=O)c1 | > 29.9 µM

system: SF-539 CNS; assay: inhibition of tumour cell growth, NCI panel, 48 h

Compound | TGI
CC(=O)/C=C/C1=C(C)CCCC1(C)CC(C)C (configuration not stated) | > 100 µM
O=[N+]([O-])c1ccc2[nH]nc(OCc3ccccc3Cl)c2c1 | 50.9 µM
C=C1CCN2CC[C@@H](OC(=O)/C(C)=C\C)[C@@H]12 | > 100 µM
O=C(N/N=C/c1ccc(Cl)cc1)c1c(Cl)c(Cl)c(Cl)c(Cl)c1-c1nc2ccccc2[nH]1 | > 100 µM
CCOC(=S)SCC(=O)O | > 100 µM
CC1=Nc2ccccc2OC(C)=C1N=Nc1ccc2nc(C)[nH]c2c1 | > 100 µM
Cc1cccc(Cn2c3c(c4cc(O)ccc42)C(=O)c2ccccc2C3=O)c1 | 26.9 µM

system: HOP-92 NSCLC; assay: inhibition of tumour cell growth, NCI panel, 48 h

Compound | TGI
CC(=O)/C=C/C1=C(C)CCCC1(C)CC(C)C (configuration not stated) | 37.7 µM
O=[N+]([O-])c1ccc2[nH]nc(OCc3ccccc3Cl)c2c1 | 47.4 µM
C=C1CCN2CC[C@@H](OC(=O)/C(C)=C\C)[C@@H]12 | > 100 µM
O=C(N/N=C/c1ccc(Cl)cc1)c1c(Cl)c(Cl)c(Cl)c(Cl)c1-c1nc2ccccc2[nH]1 | > 100 µM
CCOC(=S)SCC(=O)O | > 100 µM
CC1=Nc2ccccc2OC(C)=C1N=Nc1ccc2nc(C)[nH]c2c1 | > 100 µM

system: SR leukemia; assay: inhibition of tumour cell growth, NCI panel, 48 h

Compound | TGI
CC(=O)/C=C/C1=C(C)CCCC1(C)CC(C)C (configuration not stated) | 36.8 µM
O=[N+]([O-])c1ccc2[nH]nc(OCc3ccccc3Cl)c2c1 | > 100 µM
C=C1CCN2CC[C@@H](OC(=O)/C(C)=C\C)[C@@H]12 | > 100 µM
O=C(N/N=C/c1ccc(Cl)cc1)c1c(Cl)c(Cl)c(Cl)c(Cl)c1-c1nc2ccccc2[nH]1 | > 100 µM
CCOC(=S)SCC(=O)O | > 100 µM
CC1=Nc2ccccc2OC(C)=C1N=Nc1ccc2nc(C)[nH]c2c1 | > 100 µM
Cc1cccc(Cn2c3c(c4cc(O)ccc42)C(=O)c2ccccc2C3=O)c1 | > 100 µM

system: UACC-62 melanoma; assay: inhibition of tumour cell growth, NCI panel, 48 h

Compound | TGI
CC(=O)/C=C/C1=C(C)CCCC1(C)CC(C)C (configuration not stated) | 87.3 µM
O=[N+]([O-])c1ccc2[nH]nc(OCc3ccccc3Cl)c2c1 | 88.8 µM
C=C1CCN2CC[C@@H](OC(=O)/C(C)=C\C)[C@@H]12 | > 100 µM
O=C(N/N=C/c1ccc(Cl)cc1)c1c(Cl)c(Cl)c(Cl)c(Cl)c1-c1nc2ccccc2[nH]1 | > 100 µM
CCOC(=S)SCC(=O)O | > 100 µM
CC1=Nc2ccccc2OC(C)=C1N=Nc1ccc2nc(C)[nH]c2c1 | > 100 µM
Cc1cccc(Cn2c3c(c4cc(O)ccc42)C(=O)c2ccccc2C3=O)c1 | > 100 µM

system: UACC-257 melanoma; assay: inhibition of tumour cell growth, NCI panel, 48 h

Compound | TGI
CC(=O)/C=C/C1=C(C)CCCC1(C)CC(C)C (configuration not stated) | 84 µM
O=[N+]([O-])c1ccc2[nH]nc(OCc3ccccc3Cl)c2c1 | > 100 µM
C=C1CCN2CC[C@@H](OC(=O)/C(C)=C\C)[C@@H]12 | > 100 µM
CCOC(=S)SCC(=O)O | > 100 µM
CC1=Nc2ccccc2OC(C)=C1N=Nc1ccc2nc(C)[nH]c2c1 | > 100 µM
Cc1cccc(Cn2c3c(c4cc(O)ccc42)C(=O)c2ccccc2C3=O)c1 | > 100 µM

system: MALME-3M melanoma; assay: inhibition of tumour cell growth, NCI panel, 48 h

Compound | TGI
CC(=O)/C=C/C1=C(C)CCCC1(C)CC(C)C (configuration not stated) | 89.1 µM
O=[N+]([O-])c1ccc2[nH]nc(OCc3ccccc3Cl)c2c1 | > 100 µM
C=C1CCN2CC[C@@H](OC(=O)/C(C)=C\C)[C@@H]12 | > 100 µM
O=C(N/N=C/c1ccc(Cl)cc1)c1c(Cl)c(Cl)c(Cl)c(Cl)c1-c1nc2ccccc2[nH]1 | > 100 µM
CCOC(=S)SCC(=O)O | > 100 µM
